Read-outs that look alike come from different tables or passages of the source. Square brackets hold non-standard residues; d marks the D form. Peptide text beside a SMILES is read from it. Cit = NC(=O)NCCC[C@H](N)C(=O)O
Tests used:
HLA-DRB1*01:01 = biological target: T1, HLA-DRB1*01:01 (Homo sapiens, UniProt P01903+P01911, A100R/D57E/F55L/F60I/F76Y/I96L/L162R/M171V/P40L/Q125E/R42F/V115G/Y59C); assay: HLA class II peptide binding, inhibition of radiolabeled peptide binding to purified MHC; settings: for DRB1*01:01 binding capacity, WT/cit ratio: ratio of WT IC50 to Cit IC50, >1 = citrullination increases binding
T1 construct: EBV transformed homozygous cell lines were used as sources of MHC molecules; endogenous in cells; host or cells: EBV transformed homozygous cell lines

HLA-DRB1*04:01 = biological target: T2, HLA-DRB1*04:01 (Homo sapiens, UniProt P01903+P01911, A100K/A169T/F76Y/I96L/K127E/L162R/M171V/N62H/P40V/Q125Y/R42H/S133A/S149N/S66Y/V115G/V209L/W38E); assay: as above; settings: for DRB1*04:01 binding capacity, WT/cit ratio: ratio of WT IC50 to Cit IC50, >1 = citrullination increases binding
T2 construct: EBV transformed homozygous cell lines were used as sources of MHC molecules; endogenous in cells; host or cells: EBV transformed homozygous cell lines

[1] = citrullinated 15-mer (X), purified MHC, inhibition of radiolabeled peptide binding, dash = IC50 >40,000 nM, read-out: DRB1*01:01 binding capacity, Cit peptide (IC50 nM)
[2] = citrullinated 15-mer (X), purified MHC, inhibition of radiolabeled peptide binding, dash = IC50 >40,000 nM, read-out: DRB1*04:01 binding capacity, Cit peptide (IC50 nM)
[3] = citrullinated 15-mer peptide (X = citrulline), purified HLA-DRB1*01:01, read-out: DRB1*01:01 binding capacity, Cit peptide (IC50 nM)
[4] = citrullinated 15-mer peptide (X = citrulline), purified HLA-DRB1*04:01, read-out: DRB1*04:01 binding capacity, Cit peptide (IC50 nM)
[5] = citrullinated peptide as listed (X at Cit position), read-out: DRB1*01:01 binding capacity Cit peptide (IC50 nM)
[6] = value of the wild-type (non-citrullinated) counterpart of the listed peptide, read-out: DRB1*01:01 binding capacity WT peptide (IC50 nM)
[7] = citrullinated peptide as listed (X at Cit position), read-out: DRB1*04:01 binding capacity Cit peptide (IC50 nM)
[8] = value of the wild-type (non-citrullinated) counterpart of the listed peptide, read-out: DRB1*04:01 binding capacity WT peptide (IC50 nM)

| SMILES | IC50 (HLA-DRB1*01:01; [1]) [nM] | IC50 (HLA-DRB1*04:01; [2]) [nM] | IC50 (HLA-DRB1*01:01; [3]) [nM] | IC50 (HLA-DRB1*04:01; [4]) [nM] | further results |
| --- | --- | --- | --- | --- | --- |
| CC(C)C[C@H](NC(=O)[C@H](CC(=O)O)NC(=O)[C@H](CC(C)C)NC(=O)[C@H](CCCNC(N)=O)NC(=O)[C@H](C)NC(=O)[C@H](CC(C)C)NC(=O)[C@H](CO)NC(=O)[C@H](C)NC(=O)[C@H](CC(N)=O)NC(=O)[C@H](CC(=O)O)NC(=O)[C@@H](NC(=O)[C@H](CC(=O)O)NC(=O)[C@H](CCC(N)=O)NC(=O)[C@H](CCCNC(=N)N)NC(=O)[C@@H](N)Cc1ccccc1)C(C)C)C(=O)O [FRQDVDNASLAXLDL] (H-FRQDVDNASLA[Cit]LDL-OH) | 3940 | 279 |  |  |  |
| CC[C@H](C)[C@H](NC(=O)[C@H](C)NC(=O)[C@H](CC(=O)O)NC(=O)[C@H](C)NC(=O)[C@H](CC(C)C)NC(=O)[C@H](CO)NC(=O)[C@@H](N)Cc1ccccc1)C(=O)N[C@@H](CC(N)=O)C(=O)N[C@H](C(=O)N[C@@H](CCC(=O)O)C(=O)N[C@@H](Cc1ccccc1)C(=O)N[C@@H](CCCCN)C(=O)N[C@@H](CC(N)=O)C(=O)N[C@H](C(=O)N[C@@H](CCCNC(N)=O)C(=O)O)[C@@H](C)O)[C@@H](C)O [FSLADAINTEFKNTX] (H-FSLADAINTEFKNT[Cit]-OH) | 41 | 22600 |  |  |  |
| CC(C)C[C@H](NC(=O)[C@H](CC(=O)O)NC(=O)[C@H](CC(C)C)NC(=O)[C@H](CCCNC(=N)N)NC(=O)[C@H](C)NC(=O)[C@H](CC(C)C)NC(=O)[C@H](CO)NC(=O)[C@H](C)NC(=O)[C@H](CC(N)=O)NC(=O)[C@H](CC(=O)O)NC(=O)[C@@H](NC(=O)[C@H](CC(=O)O)NC(=O)[C@H](CCC(N)=O)NC(=O)[C@H](CCCNC(N)=O)NC(=O)[C@@H](N)Cc1ccccc1)C(C)C)C(=O)O [FXQDVDNASLARLDL] (H-F[Cit]QDVDNASLARLDL-OH) | 7990 | 280 |  |  |  |
| CC(C)[C@H](NC(=O)CNC(=O)[C@H](C)NC(=O)[C@H](C)NC(=O)CNC(=O)[C@H](CC(=O)O)NC(=O)[C@H](CCCNC(N)=O)NC(=O)CNC(=O)[C@@H]1CCCN1C(=O)[C@@H]1CCCN1C(=O)CNC(=O)[C@H](CC(=O)O)NC(=O)[C@H](C)NC(=O)CN)C(=O)N[C@@H](CCCCN)C(=O)O [GADGPPGXDGAAGVK] (H-GADGPPG[Cit]DGAAGVK-OH; N-terminus and C-terminus assumed) |  |  | > 40000 | > 40000 | DRB1*01:01 binding capacity, WT/cit ratio (HLA-DRB1*01:01): 1.0; DRB1*04:01 binding capacity, WT/cit ratio (HLA-DRB1*04:01): 1.0 |
| CC(C)C[C@H](NC(=O)CNC(=O)[C@H](CCC(N)=O)NC(=O)[C@@H]1CCCN1C(=O)CNC(=O)[C@@H]1CCCN1C(=O)[C@@H]1CCCN1C(=O)CNC(=O)[C@H](CCC(=O)O)NC(=O)[C@H](C)NC(=O)CN)C(=O)N[C@@H](C)C(=O)NCC(=O)N[C@@H](CCC(N)=O)C(=O)N[C@@H](CCCNC(N)=O)C(=O)O [GAEGPPGPQGLAGQX] (H-GAEGPPGPQGLAGQ[Cit]-OH; N-terminus and C-terminus assumed) |  |  | > 40000 | > 40000 | DRB1*01:01 binding capacity, WT/cit ratio (HLA-DRB1*01:01): 1.0; DRB1*04:01 binding capacity, WT/cit ratio (HLA-DRB1*04:01): 1.0 |
| CC(C)C[C@H](NC(=O)CNC(=O)[C@H](CCC(N)=O)NC(=O)[C@H](C)NC(=O)CN)C(=O)N[C@@H](CCC(N)=O)C(=O)NCC(=O)N1CCC[C@H]1C(=O)N[C@@H](CCCNC(N)=O)C(=O)NCC(=O)N[C@@H](CC(C)C)C(=O)N1CCC[C@H]1C(=O)NCC(=O)N[C@H](C(=O)N1CCC[C@H]1C(=O)O)[C@@H](C)O [GAQGLQGPXGLPGTP] (H-GAQGLQGP[Cit]GLPGTP-OH) |  |  | 578 | > 40000 |  |
| CSCC[C@H](NC(=O)[C@@H]1CCCN1C(=O)CNC(=O)[C@H](CCC(N)=O)NC(=O)[C@H](C)NC(=O)CNC(=O)[C@H](C)NC(=O)[C@H](CCC(=O)O)NC(=O)CNC(=O)[C@H](CCCNC(N)=O)NC(=O)[C@H](CC(=O)O)NC(=O)CN)C(=O)NCC(=O)N1CCC[C@H]1C(=O)N[C@@H](CO)C(=O)O [GDXGEAGAQGPMGPS] (H-GD[Cit]GEAGAQGPMGPS-OH; N-terminus and C-terminus assumed) |  |  | > 40000 | > 40000 | DRB1*01:01 binding capacity, WT/cit ratio (HLA-DRB1*01:01): 0.2; DRB1*04:01 binding capacity, WT/cit ratio (HLA-DRB1*04:01): 1.0 |
| CC[C@H](C)[C@H](NC(=O)[C@H](CCCNC(N)=O)NC(=O)[C@H](CO)NC(=O)[C@H](CCC(=O)O)NC(=O)[C@H](CCC(=O)O)NC(=O)CN)C(=O)N[C@@H](CO)C(=O)N[C@@H](CC(C)C)C(=O)N1CCC[C@H]1C(=O)N[C@@H](CC(C)C)C(=O)N1CCC[C@H]1C(=O)N[C@@H](CC(N)=O)C(=O)N[C@@H](Cc1ccccc1)C(=O)N[C@@H](CO)C(=O)N[C@@H](CO)C(=O)O [GEESXISLPLPNFSS] (H-GEES[Cit]ISLPLPNFSS-OH) |  |  | 646 | 8410 |  |
| C[C@H](NC(=O)[C@@H](NC(=O)CNC(=O)[C@@H]1CCCN1C(=O)CNC(=O)CN)[C@@H](C)O)C(=O)N[C@@H](CO)C(=O)N[C@@H](CCCNC(=N)N)C(=O)N1CCC[C@H]1C(=O)N[C@@H](CO)C(=O)N[C@@H](CO)C(=O)N[C@@H](CO)C(=O)N[C@@H](CCCNC(N)=O)C(=O)N[C@@H](CO)C(=O)N[C@@H](Cc1ccc(O)cc1)C(=O)O [GGPGTASRPSSSXSY] (H-GGPGTASRPSSS[Cit]SY-OH) | 13800 | > 40000 |  |  |  |
| C[C@H](NC(=O)[C@@H](NC(=O)CNC(=O)[C@@H]1CCCN1C(=O)CNC(=O)CN)[C@@H](C)O)C(=O)N[C@@H](CO)C(=O)N[C@@H](CCCNC(N)=O)C(=O)N1CCC[C@H]1C(=O)N[C@@H](CO)C(=O)N[C@@H](CO)C(=O)N[C@@H](CO)C(=O)N[C@@H](CCCNC(=N)N)C(=O)N[C@@H](CO)C(=O)N[C@@H](Cc1ccc(O)cc1)C(=O)O [GGPGTASXPSSSRSY] (H-GGPGTAS[Cit]PSSSRSY-OH) | 10400 | > 40000 |  |  |  |
| CC(C)C[C@H](NC(=O)CNC(=O)[C@@H](NC(=O)[C@H](Cc1ccccc1)NC(=O)CNC(=O)[C@H](CCCNC(N)=O)NC(=O)[C@H](Cc1c[nH]cn1)NC(=O)CN)[C@@H](C)O)C(=O)N[C@@H](CCC(N)=O)C(=O)NCC(=O)N[C@@H](CC(C)C)C(=O)N1CCC[C@H]1C(=O)NCC(=O)N1CCC[C@H]1C(=O)N1CCC[C@H]1C(=O)O [GHXGFTGLQGLPGPP] (H-GH[Cit]GFTGLQGLPGPP-OH) |  |  | 0.65 | 2340 |  |
| CC[C@H](C)[C@H](NC(=O)CN)C(=O)N[C@@H](C)C(=O)NCC(=O)N[C@@H](C)C(=O)N1CCC[C@H]1C(=O)NCC(=O)N[C@@H](Cc1ccccc1)C(=O)N1CCC[C@H]1C(=O)NCC(=O)N1CCC[C@H]1C(=O)N[C@@H](CCCNC(N)=O)C(=O)NCC(=O)N1CCC[C@H]1C(=O)N1CCC[C@H]1C(=O)O [GIAGAPGFPGPXGPP] (H-GIAGAPGFPGP[Cit]GPP-OH) |  |  | 565 | > 40000 |  |
| CC[C@H](C)[C@H](NC(=O)CN)C(=O)N[C@H](C(=O)NCC(=O)N[C@@H](CC(C)C)C(=O)N1CCC[C@H]1C(=O)NCC(=O)N[C@@H](CCC(N)=O)C(=O)N[C@@H](CCCNC(=N)N)C(=O)NCC(=O)N[C@@H](CCC(=O)O)C(=O)N[C@@H](CCCNC(N)=O)C(=O)NCC(=O)N[C@@H](Cc1ccccc1)C(=O)N1CCC[C@H]1C(=O)O)C(C)C [GIVGLPGQRGEXGFP] (H-GIVGLPGQRGE[Cit]GFP-OH) |  |  | 6.7 | 5800 |  |
| CC[C@H](C)[C@H](NC(=O)CN)C(=O)N[C@H](C(=O)NCC(=O)N[C@@H](CC(C)C)C(=O)N1CCC[C@H]1C(=O)NCC(=O)N[C@@H](CCC(N)=O)C(=O)N[C@@H](CCCNC(N)=O)C(=O)NCC(=O)N[C@@H](CCC(=O)O)C(=O)N[C@@H](CCCNC(=N)N)C(=O)NCC(=O)N[C@@H](Cc1ccccc1)C(=O)N1CCC[C@H]1C(=O)O)C(C)C [GIVGLPGQXGERGFP] (H-GIVGLPGQ[Cit]GERGFP-OH) |  |  | 3.6 | 2050 |  |
| CC[C@H](C)[C@H](NC(=O)[C@@H](NC(=O)[C@@H](NC(=O)[C@H](CCCCN)NC(=O)CN)[C@@H](C)O)C(C)C)C(=O)N[C@@H](CCC(=O)O)C(=O)N[C@@H](Cc1ccc(O)cc1)C(=O)N[C@@H](CCCNC(=N)N)C(=O)N[C@@H](CO)C(=O)N[C@@H](CCC(N)=O)C(=O)N[C@@H](CCCCN)C(=O)N[C@H](C(=O)N[C@@H](CO)C(=O)N[C@@H](CCCNC(N)=O)C(=O)N[C@@H](CC(C)C)C(=O)O)[C@@H](C)O [GKTVIEYRSQKTSXL] (H-GKTVIEYRSQKTS[Cit]L-OH) |  |  |  |  | IC50 (HLA-DRB1*01:01; [5]): 9.3 nM; IC50 (HLA-DRB1*01:01; [6]): 29 nM; IC50 (HLA-DRB1*04:01; [7]): 138 nM; IC50 (HLA-DRB1*04:01; [8]): 646 nM |
| CC[C@H](C)[C@H](NC(=O)[C@@H](NC(=O)[C@@H](NC(=O)[C@H](CCCCN)NC(=O)CN)[C@@H](C)O)C(C)C)C(=O)N[C@@H](CCC(=O)O)C(=O)N[C@@H](Cc1ccc(O)cc1)C(=O)N[C@@H](CCCNC(N)=O)C(=O)N[C@@H](CO)C(=O)N[C@@H](CCC(N)=O)C(=O)N[C@@H](CCCCN)C(=O)N[C@H](C(=O)N[C@@H](CO)C(=O)N[C@@H](CCCNC(=N)N)C(=O)N[C@@H](CC(C)C)C(=O)O)[C@@H](C)O [GKTVIEYXSQKTSRL] (H-GKTVIEY[Cit]SQKTSRL-OH) |  |  |  |  | IC50 (HLA-DRB1*01:01; [5]): 7.1 nM; IC50 (HLA-DRB1*01:01; [6]): 29 nM; IC50 (HLA-DRB1*04:01; [7]): 153 nM; IC50 (HLA-DRB1*04:01; [8]): 646 nM |

Reference: article PMC5421785, “Citrullination only infrequently impacts peptide binding to HLA class II MHC” (PLoS ONE, 2017)
